Test results published in ChEMBL document CHEMBL3228023, “Paradoxical effects of N-cyanoalkyl substituents upon the activities of several classes of opioids” (J Med Chem, 1979).
Structures can show the parent of a compound that is named as a salt. Calls of active or inactive are those of the source. The calls are words filed in the database; no cut-off is given here.

Experiments:
[1] = Binding affinity to opiate receptor in mouse/rat NG108-15 hybrid cells
[2] = biological target: Opioid receptor (Rattus norvegicus, UniProt P33533+P34975+P33535); experiment: Binding affinity to opiate receptor in rat brain homogenates; type: tissue-based
[3] = test system: Mus musculus; experiment: Antinociceptive activity in sc dosed mouse by Eddy-hot plate assay; type: functional
[4] = test system: Mus musculus; experiment: Antinociceptive activity in sc dosed mouse by Nilsen assay; type: functional
[5] = test system: Mus musculus; experiment: Antinociceptive activity in Swiss-webster mouse at 1.6 umol/kg, sc by tail-flick assay; type: functional
[6] = Acute toxicity in sc dosed mouse; type: organism-based; conditions: in vivo
[7] = test system: Mus musculus; experiment: Ratio of morphine ED50 to compound ED50 for antinociceptive activity in sc dosed mouse by Eddy-hot plate assay; type: functional
[8] = test system: Mus musculus; experiment: Antinociceptive activity in sc dosed mouse by Eddy-hot plate assay in presence of naloxone; type: functional, organism-based
[9] = test system: Mus musculus; experiment: Antinociceptive activity in Swiss-webster mouse at 1.6 umol/kg, sc by tail-flick assay in presence of 0.08 to 8.5 umol/kg naloxone; type: functional, organism-based
[10] = test system: Rhesus monkey; experiment: Acute toxicity in rhesus monkey assessed as salivation at 0.25 to 2 mg/kg by single-dose suppression test; type: organism-based, Macaca mulatta; design: dose 0.25-2 mg/kg; conditions: in vivo
[11] = test system: Rhesus monkey; experiment: Acute toxicity in rhesus monkey assessed as head tremors, covulsiona, ataxia at 2 mg/kg by single-dose suppression test; type: organism-based, Macaca mulatta; design: dose 2 mg/kg; conditions: in vivo
[12] = test system: Rhesus monkey; experiment: Acute toxicity in rhesus monkey assessed as CNS depression at 0.625 to 5 mg/kg by single-dose suppression test in presence of naloxone; type: organism-based, Macaca mulatta, Central nervous system; design: dose 0.625-5 mg/kg; conditions: in vivo
[13] = test system: Rhesus monkey; experiment: Acute toxicity in rhesus monkey assessed as CNS depression at 0.625 to 5 mg/kg by single-dose suppression test; type: organism-based, Macaca mulatta, Central nervous system; design: dose 0.625-5 mg/kg; conditions: in vivo
[14] = test system: Rhesus monkey; experiment: Acute toxicity in rhesus monkey assessed as ataxia and mild stupor at 1 to 2 mg/kg by single-dose suppression test; type: organism-based, Macaca mulatta; design: dose 1-2 mg/kg; conditions: in vivo
[15] = test system: Rhesus monkey; experiment: Narcotic antagonist activity in rhesus monkey at 1 to 2 mg/kg by precipitated withdrawal test; type: organism-based, Macaca mulatta; design: dose 1-2 mg/kg; conditions: in vivo
[16] = test system: Mus musculus; experiment: Ratio of morphine ED50 to compound ED50 for antinociceptive activity in sc dosed mouse by Nilsen assay; type: functional
[17] = test system: Rhesus monkey; experiment: Acute toxicity in rhesus monkey assessed as minimal CNS depression at 1.5 to 12 mg/kg by single-dose suppression test; type: organism-based, Macaca mulatta, Central nervous system; design: dose 1.5-12 mg/kg; conditions: in vivo
[18] = test system: Mus musculus; experiment: Antinociceptive activity in mouse at 100 mg/kg, sc by Eddy-hot plate assay; type: functional, organism-based; design: dose 100 mg/kg
[19] = test system: Rhesus monkey; experiment: Physical dependence capacity in rhesus monkey at 0.16 to 2.56 mg/kg by single-dose suppression test; type: ADME, organism-based, Macaca mulatta; design: dose 0.16-2.56 mg/kg; conditions: in vivo
[20] = test system: Rhesus monkey; experiment: Acute toxicity in rhesus monkey assessed as ataxia at 0.32 to 2.56 mg/kg by single-dose suppression test; type: organism-based, Macaca mulatta; design: dose 0.32-2.56 mg/kg; conditions: in vivo
[21] = test system: Rhesus monkey; experiment: Acute toxicity in rhesus monkey assessed as tremors at 0.64 to 2.56 mg/kg by single-dose suppression test; type: organism-based, Macaca mulatta; design: dose 0.64-2.56 mg/kg; conditions: in vivo
[22] = Therapeutic ratio of LD50 for sc dosed mouse to ED50 for antinociceptive activity in sc dosed mouse by Eddy-hot plate assay; conditions: in vivo
[23] = test system: Rhesus monkey; experiment: Narcotic antagonist activity in rhesus monkey at 0.32 to 1.28 mg/kg by precipitated withdrawal test; type: organism-based, Macaca mulatta; design: dose 0.32-1.28 mg/kg; conditions: in vivo
[24] = test system: Rhesus monkey; experiment: Acute toxicity in rhesus monkey assessed as rigidity at 2.56 mg/kg by single-dose suppression test; type: organism-based, Macaca mulatta; design: dose 2.56 mg/kg; conditions: in vivo
[25] = test system: Rhesus monkey; experiment: Acute toxicity in rhesus monkey assessed as exacerbation of withdrawal at 0.005 to 0.04 mg/kg by single-dose suppression test; type: organism-based, Macaca mulatta; design: dose 0.005-0.04 mg/kg; conditions: in vivo
[26] = test system: Rhesus monkey; experiment: Acute toxicity in rhesus monkey assessed as salivation at 0.005 to 0.02 mg/kg by single-dose suppression test; type: organism-based, Macaca mulatta; design: dose 0.005-0.02 mg/kg; conditions: in vivo
[27] = test system: Rhesus monkey; experiment: Acute toxicity in rhesus monkey assessed as tremors at 36 mg/kg by single-dose suppression test; type: organism-based, Macaca mulatta; design: dose 36 mg/kg; conditions: in vivo
[28] = test system: Rhesus monkey; experiment: Narcotic antagonist activity in rhesus monkey […]; type: organism-based, Macaca mulatta; conditions: in vivo
[29] = test system: Rhesus monkey; experiment: Acute toxicity in rhesus monkey assessed as minimal CNS depression at 1.5 to 36 mg/kg by single-dose suppression test; type: organism-based, Macaca mulatta, Central nervous system; design: dose 1.5-36 mg/kg; conditions: in vivo
[30] = test system: Rhesus monkey; experiment: Acute toxicity in rhesus monkey assessed as withdrawal signs at 96 mg/kg by single-dose suppression test; type: organism-based, Macaca mulatta; design: dose 96 mg/kg; conditions: in vivo
[31] = test system: Rhesus monkey; experiment: Acute toxicity in rhesus monkey assessed as withdrawal signs at 24 to 96 mg/kg by precipitated withdrawal test; type: organism-based, Macaca mulatta; design: dose 24-96 mg/kg; conditions: in vivo
[32] = test system: Rhesus monkey; experiment: Acute toxicity in rhesus monkey at 10 to 40 mg/kg by single-dose suppression test; type: organism-based, Macaca mulatta; design: dose 10-40 mg/kg; conditions: in vivo
[33] = organism: Mus musculus
[34] = test system: Mus musculus; experiment: Antinociceptive activity in mouse at 100 mg/kg, sc by Nilsen assay; type: functional, organism-based; design: dose 100 mg/kg
[35] = test system: Rhesus monkey; experiment: Physical dependence capacity in rhesus monkey at 12 mg/kg by single-dose suppression test; type: ADME, organism-based, Macaca mulatta; design: dose 12 mg/kg; conditions: in vivo
[36] = test system: Rhesus monkey; experiment: Acute toxicity in rhesus monkey at 3 to 12 mg/kg by single-dose suppression test; type: organism-based, Macaca mulatta; design: dose 3-12 mg/kg; conditions: in vivo
[37] = Mus musculus, sc, read-out: ED50

CN1CC[C@]23CCCC[C@H]2[C@H]1Cc1ccc(O)cc13.O=C(O)C(O)C(O)C(=O)O
EC50 [1]: 0.2 µM | EC50 [2]: 0.7 µM | ED50 [3, 37]: 0.49 µmol/kg | ED50 [4, 37]: 0.54 µmol/kg

CN1CC[C@]23c4c5ccc(O)c4O[C@H]2[C@@H](O)C=C[C@H]3[C@H]1C5
EC50 [1]: 1.5 µM | ED50 [3, 37]: 3.3 µmol/kg | ED50 [4, 37]: 4.1 µmol/kg

Cl.N#CCCN1CC[C@]23CCCCC2C1Cc1ccc(O)cc13.O (stereo partly specified)
Activity [5]: 100% | LD50 [6]: 534 mg/kg | Ratio ED50 [7]: 50

N#CCCN1CC[C@]23CCCCC2C1Cc1ccc(O)cc13 (stereo partly specified)
Activity [8]: inactive | Activity [9]: inactive

C[C@H]1C2Cc3ccc(O)cc3C1(C)CCN2CCC#N (mixture of isomers)
EC50 [2]: 3 µM | Activity [10]: Toxic | ED50 [3]: 0.26 µmol/kg | Activity [11]: Toxic | ED50 [4]: 0.31 µmol/kg

C[C@H]1C2Cc3ccc(O)cc3C1(C)CCN2CC#N (mixture of isomers)
EC50 [2]: 20 µM | ED50 [3, 37]: 22.2 µmol/kg | Activity [12]: Toxic | ED50 [4, 37]: 39.1 µmol/kg | Activity [13]: Toxic

C[C@H]1C2Cc3ccc(O)cc3C1(C)CCN2CCCC#N (mixture of isomers)
EC50 [2]: 4 µM | Activity [14]: Toxic | ED50 [3, 37]: 2.4 µmol/kg | ED50 [4, 37]: 1.5 µmol/kg | Activity [15]: Toxic

Br.C[C@H]1C2Cc3ccc(O)cc3C1(C)CCN2CCC#N (mixture of isomers)
Ratio ED50 [16]: 12 | Ratio ED50 [7]: 12

C[C@H]1C2Cc3ccc(O)cc3C1(C)CCN2CCC#N (single isomer, unassigned; (+)) [listing 1 of 2 here]
Activity [17]: Toxic

C[C@H]1C2Cc3ccc(O)cc3C1(C)CCN2CCC#N (single isomer, unassigned; (+)) [listing 2 of 2 here]
Activity [18]: inactive

N#CCCN1CC[C@]23CCCCC2C1Cc1ccc(O)cc13 (single isomer, unassigned; (+))
Activity [18]: inactive

C[C@H]1C2Cc3ccc(O)cc3C1(C)CCN2CCC#N (single isomer, unassigned; (-))
Activity [19]: Non-toxic | EC50 [1]: 0.08 µM | EC50 [2]: 3 µM | Activity [20]: Toxic | Activity [21]: Toxic | selectivity ratio [22]: 13000 | ED50 [3]: 0.11 µmol/kg | ED50 [4]: 0.03 µmol/kg | Activity [23]: Toxic | Activity [24]: Toxic

Br.C[C@H]1C2Cc3ccc(O)cc3C1(C)CCN2CCC#N (single isomer, unassigned; (-))
LD50 [6]: 489 mg/kg

N#CCCN1CC[C@]23CCCCC2C1Cc1ccc(O)cc13 (single isomer, unassigned; (-))
EC50 [1]: 0.015 µM | EC50 [2]: 1.5 µM | selectivity ratio [22]: 23000 | ED50 [3, 37]: 0.07 µmol/kg | Activity [25]: Toxic | Activity [26]: Toxic | ED50 [4, 37]: 0.14 µmol/kg

N#CCN1CC[C@]23CCCCC2C1Cc1ccc(O)cc13 (single isomer, unassigned; (-))
EC50 [2]: 7 µM | ED50 [3, 37]: 5.3 µmol/kg | ED50 [4, 37]: 13.2 µmol/kg

N#CCCN1CC[C@]23c4c5ccc(O)c4O[C@H]2[C@@H](O)C=CC3C1C5 (single isomer, unassigned; (-))
EC50 [1]: 1 µM | EC50 [2]: 20 µM | Activity [27]: Toxic | Activity [28]: Toxic | ED50 [3, 37]: 8.3 µmol/kg | ED50 [4, 37]: 33 µmol/kg | Activity [29]: Toxic

COc1ccc2c3c1O[C@H]1[C@@H](O)C=CC4C(C2)N(CCC#N)CC[C@@]341 (single isomer, unassigned; (-))
EC50 [2]: 700 µM | Activity [30]: Toxic | Activity [31]: Toxic

COc1ccc2c3c1O[C@H]1C(=O)CC[C@@]4(O)C(C2)N(CCC#N)CC[C@]314 (single isomer, unassigned; (-))
EC50 [2]: 60 µM | Activity [32]: Non-toxic | ED50 [33]: inactive | Activity [34]: inactive

Br.CC1C2Cc3ccc(O)cc3C1(C)CCN2C (single isomer, unassigned; (-))
EC50 [1]: 0.4 µM | EC50 [2]: 4 µM | ED50 [3, 37]: 2 µmol/kg | ED50 [4, 37]: 1.5 µmol/kg

COc1ccc2c3c1O[C@H]1[C@@H](O)C=C[C@H]4[C@@H](C2)N(C)CC[C@@]341.COc1ccc2c3c1O[C@H]1[C@@H](O)C=C[C@H]4[C@@H](C2)N(C)CC[C@@]341.O.O=P(O)(O)O.O=P(O)(O)O [CODEINE PHOSPHATE]
Activity [35]: Toxic | ED50 [3, 37]: 14.6 µmol/kg | ED50 [4, 37]: 20.4 µmol/kg | Activity [36]: Toxic

CN1CC[C@]23c4c5ccc(O)c4O[C@H]2C(=O)CC[C@@]3(O)[C@H]1C5 [OXYMORPHONE HYDROCHLORIDE]
ED50 [3, 37]: 0.27 µmol/kg
